{"source": "patent US8802826B2", "about": "“Anti-clusterin antibodies and antigen binding fragments and their use to reduce tumor volume” (Alethia Biotherapeutics Inc., priority 2009, dated 2014)", "key": {"[1]": {"system": "EMT6 cells", "assay": "wound healing (scratch) migration assay", "type": "cell-based, mouse", "details": "for activity in the scratch assay relative to the other antibodies: comparison between 16B5 configurations", "protocol": "FIG. 4. h16B5 blocks the migration of cancer cell lines.\nTo test the activity of anti-clusterin antibodies against cancer cell migration, a standard wound healing, or scratch assay, was used. In this assay, EMT6 cells, a mouse mammary carcinoma cell line, was plated at high density and subjected to wounding by the creation of a scratch in the cell layer. At time 0, a wide denuded area is evident that quickly fills up after incubation of the cells at 37 C for 15 h (see upper left-hand panels in FIG. 4)."}, "[2]": {"system": "PC3 tumor cell line", "assay": "invasive growth in Matrigel, PC3", "type": "cell-based, human", "details": "8 μg/mL, up to 3 weeks", "protocol": "FIG. 5. Inhibition of h16B5 reduces the invasiveness of human prostate cancer cells. The bottom of 12-well plates was covered with 200 μL Growth factor reduced matrigel (Becton Dickinson). Cells (2.5×10^4) were resuspended in 200 μL matrigel, which was layered on top of this, and finally 500 μL of cell specific growth medium was added on top of the matrigel. h16B5 was added to every layer of matrigel as well as the medium in a concentration of 8 μg/mL. Plates were incubated at 37° C. for up to 3 weeks during which the growth medium (+/−h16B5) was replenished weekly. The arrows indicate the areas of epithelial-like cells.\nWe then determined whether other cell lines such as the human prostate PC3 and DU145 cell lines, which secrete various levels of endogenous clusterin, could be affected in their invasive behavior and growth by the h16B5."}, "[3]": {"system": "PANC-1 cells", "assay": "Transwell Matrigel migration of TGFβ-stimulated pancreatic cancer cells", "type": "cell-based, human", "details": "24 h incubation", "protocol": "FIG. 12. H16B5 inhibits the migration of pancreatic cancer cell lines. PANC-1 cells were seeded in serum-free medium in the upper chamber of a 24-well Transwell plate containing a Matrigel barrier. The lower wells were filled with medium containing 10% FBS as a chemo-attractant. After a 24 h incubation in the presence or absence of TGFβ and/or h16B5 (as indicated), the number of cells in the Matrigel layer were stained and counted.\nTumors derived from 4 different human pancreatic cell lines were obtained which were fixed in formalin, embedded in paraffin, and section on glass slides. Immunohistochemistry was conducted with h16B5 antibody to determine if tumors derived from this cancer indication expressed clusterin. The tumors were derived from Aspc-1, BxPC-3, PANC-1, and MiaPaCa-2 all of which were derived from pancreatic cancer patients (ATCC, Manassas, Va.). Paraffin-embedded epithelial pancreatic tumor samples were placed on glass slides and fixed for 15 min at 50° C. Deparaffinization was conducted by treating 2× with xylene followed by dehydration in successive 5 min washes in 100%, 80%, and 70% ethanol. The slides were washed 2× in PBS for 5 min and treated with antigen retrieval solution (citrate-EDTA) to unmask the antigen. […] H16B5-reactive clusterin was detected by incubating with biotin-conjugated human anti-kappa followed by streptavidin-HRP tertiary antibody. […]"}, "[4]": {"system": "BRI-JM01 mouse mammary carcinoma cells", "assay": "internalization of fluorescently labelled secreted clusterin", "type": "cell-based", "details": "h16B5 10 μg/ml, labelled clusterin 250 ng/ml", "protocol": "FIG. 13. Secreted clusterin is internalized in cancer cells. Recombinant human clusteirn was expressed in 293-6E cells, purified, and labelled with Alexa Fluor 488 using a commercial labelling kit (Invitrogen). BRI-JM01 mouse mammary carcinoma cells were seeded on coverslips and treated with 250 ng/ml of labelled secreted clusterin. At the indicated times, the cells were washed with ice-cold PBS and fixed in 2% paraformaledyhyde. The slides were mounted with Antifade Gold and images were generated with a fluorescence microscope.\nFIG. 14. H16B5 inhibits the internalization of secreted clusterin in cancer cells. The experiment was performed as described for FIG. 13. H16B5 was added at 10 μg/ml.\nIn order to begin to address this question, cell-based experiments were undertaken to determine if secreted clusterin interacted with cancer cells directly or via other secreted factors in the cell medium. In order to measure this, secreted clusterin was fluorescently labelled and incubated with BRI-JM01 mouse mammary carcinoma cells. […] As shown, the internalization increases over time in manner that is consistent with a receptor-mediated endocytic pathway. Furthermore, the punctate and perinuclear pattern of staining that results after 24 hours (see white arrows in FIG. 13) that is often observed in proteins that are internalized along the endosomal pathway. […]"}, "[5]": {"biological_target": "T1, murine clusterin (Mus musculus, UniProt Q06890)", "T1 construct": "murine clusterin that was expressed in BR1-JM01 cells; endogenous in cells; host or cells: BR1-JM01 mouse mammary carcinoma cells", "T1 sequence (Q06890 22-448)": "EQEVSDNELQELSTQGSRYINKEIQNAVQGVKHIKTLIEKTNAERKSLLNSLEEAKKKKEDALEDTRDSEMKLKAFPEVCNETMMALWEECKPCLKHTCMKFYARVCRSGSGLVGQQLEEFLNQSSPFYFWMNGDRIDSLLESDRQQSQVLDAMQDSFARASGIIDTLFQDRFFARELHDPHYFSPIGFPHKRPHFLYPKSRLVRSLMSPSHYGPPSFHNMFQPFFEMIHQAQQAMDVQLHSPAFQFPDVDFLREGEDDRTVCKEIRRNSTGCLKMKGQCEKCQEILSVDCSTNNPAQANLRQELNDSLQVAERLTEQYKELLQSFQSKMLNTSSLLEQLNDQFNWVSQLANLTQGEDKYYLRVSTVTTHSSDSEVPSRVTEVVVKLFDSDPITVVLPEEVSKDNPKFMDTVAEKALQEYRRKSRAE", "assay": "immunohistochemistry on frozen sections of 4T1 mouse mammary tumors", "type": "binding", "details": "5 μg/ml, 1 h", "protocol": "FIG. 16. […] The experiment was performed using immunohistochemistry and detection was accomplished using a HRP-conjugated secondary antibody.\nBriefly, the frozen sections were fixed with ice-cold acetone for 10 minutes and non-specific binding was blocked with a reagent supplied in a commercially available kit (Dako Canada, Inc., Burlington, ON). H16B5 was incubated with the mouse tumor section for 1 h at a concentration of 5 μg/ml. […] A control sample was processed in an identical manner with a human isotype control IgG."}, "[6]": {"biological_target": "T1, murine clusterin", "assay": "immunofluorescence on BR1-JM01 cells", "type": "binding"}}}
{"substance": "h16B5: humanized anti-clusterin IgG2 antibody, heavy chain SEQ ID NO.:9 and light chain SEQ ID NO.:10", "values": [{"measurement": "migration of cells into the denuded area", "setting": "[1]; 37 C for 15 h", "value": "blockage of migration"}, {"measurement": "activity in the scratch assay relative to the other antibodies", "setting": "[1]", "value": "at least as active as the mouse 16B6"}, {"measurement": "activity in the scratch assay relative to the other antibodies", "setting": "[1]; listed as humanized 16B5", "value": "most effective inhibitor"}, {"measurement": "stellate morphology in Matrigel (invasive phenotype)", "setting": "[2]", "value": "significantly reduced"}, {"measurement": "migration of TGFβ-stimulated cells into the Matrigel", "setting": "[3]", "value": "severely inhibited"}, {"measurement": "internalization of secreted clusterin into JM01 cells", "setting": "[4]", "value": "blocked"}, {"measurement": "detection of murine clusterin in 4T1 tumors", "setting": "[5]", "value": "detected murine clusterin"}, {"measurement": "detection of murine clusterin expressed in BR1-JM01 cells", "setting": "[6]", "value": "detected murine clusterin"}]}
